From patent US20040229772A1, “Peptides responsive to antibodies against consensus peptide of the CS4-CFA/I family proteins” (priority 1996, published 2004)

Columns and labels:
Type in all cases: binding
[1] = tested on: Antibody to CS1; experiment: ELISA of 8-mer peptides (pins) with rabbit serum; conditions: a listed pin number means recognized
Experimental: (§1) Blocks of pins for cleavable syntheses were obtained from Chiron Mimotopes U.S. Peptide synthesis was carried out according to the manufacturer's instructions using Opfp-derivatized amino acids. Peptides of length 8 with 7 overlap were manufactured in order to locate all linear epitopes in the sequence with a highest redundancy. […] Peptides were cleaved from the pins using 0.1 M phosphate buffer, pH 8.0, containing 40% acetonitrile. Two peptides were made and sacrificed for amino acid analysis as proof of peptide purity. A dinitrophenol (DNP) pin was included so that the efficiency of the cleavage could be monitored spectrophotometrically.
(§2) For blocking, a composition containing 5% nonfat dry milk in PBS+0.2% sodium azide was used. Stock streptavidin (Calbiochem Corp., La Jolla, Calif.) at 1 mg/ml in water was kept frozen in aliquots for up to several months. On the day of use, the stock streptavidin was diluted in phosphate buffered saline (PBS) to provide a concentration of 5 μg/ml streptavidin. Goat F(ab′)2 anti-mouse, anti-rabbit and anti-human sera were labeled with alkaline phosphatase (Biosource, International, Camarillo, Calif.).
(§3) Streptavidin was plated at 5 μg/ml, 50 μl per well, and incubated over night at 4° C. Plates were then washed by hand (Nunc Immunowash 12 hand plate washer. Fisher Scientific, Pittsburgh, Pa.) three times with PBS/0.1% TWEEN 20™. Peptides were then diluted to 10 μg/ml in PBS and plated at 50-μl/well. After incubation for one hour at room temperature followed by washing, the peptides were incubated with sera diluted in blocker at appropriate concentrations (5% nonfat dry milk) for 2 hours at room temperature. After washing the wells, 50 μl of phosphatase-labeled anti-serum IgG diluted 1:1000 in blocker was added to each well and was allowed to incubate at room temperature for 1 hour. The plates were washed. The 100 μl of PNDP (p-nitrophenylphosphate) substrate, prepared according to the manufacturer's instructions, was added to each well. Results were read at 5, 15 and 60 minutes using a microtiter plate reader (UVmax™, Moelcular Devices, Sunnyvale, Calif.).
(§4) Partially to fully purified colonization factor (40% to 100% pure) was run on SDS-PAGE gel (5-15 μg/lane of 10 comb gel (precast 10 comb, 1 mm thickness, Tris-tricene gel from Novex, San Diego, Calif.), for primary immunization run 9 lanes for each rabbit (45-135 μg CF protein with ½ the amount used in the primary immunization used as a booster). The gel was stained with 0.5% COOMASSIE BLUE™ (BioRad, Richmond, Calif.) in water for 1 hour, then destained with multiple changes of water for 60-90 minutes. The colonization factor bands were excised with a scalpel and the excess gel trimmed. The bands were stored at −20° C. until use.
(§5) After removal from freezer, the gel slices were transferred to a glass tissue homogenizer using a teflon pestle with grooves at the tip. The slices were ground with 0.3 ml phosphate buffered saline (PBS). The drill was run to homogenize the gel for 30 to 45 seconds. (In the instant case, a pestle with a shaft of steel was used which allowed placement of the pestle into the chuck of the hand-held drill.)
(§6) The homogenate was transferred to 16 mm×150 mm test tubes with disposable plastic transfer pipet. The pestle and homogenizer vessel was rinsed repeatedly with PBS and the contents transferred to the 16×150 test tube until a volume of 1.2 ml was obtained.
(§7) The sample obtained above was placed in a vortex mixer and vortexed on high. Freund's adjuvant 1.2 ml was added. (Complete Freund's was used for the primary immunization, while incomplete Freund's was used for the boost.) The composition was vortexed until a thick emulsion of almost a butter consistency was obtained (12-20 minutes).
(§8) A preimmune serum was obtained on all animals, which were then immunized with the 1 ml of the emulsion subcutaneously at 4-6 spots on the shoulders and rump. The animals were boosted three weeks later, then bleed 10 days after the booster shots. […]

[2] = tested on: antibodies raised to the consensus peptide; experiment: ELISA of 8-mer peptides with rabbit antibodies; conditions: for interaction of peptides with the antibodies raised to the consensus peptide: rabbit antibodies raised to consensus peptide SEQ ID NO:1; for reactivity of 8-mer peptides with antibodies from the rabbits: rabbit antibodies raised to consensus peptide SEQ ID NO:1, biotin-SGSG-peptide on streptavidin
Experimental: as §1, §2, §3
Antibodies from the rabbits were then tested against the specific 8-mer peptides obtained from SEQ ID NO:1 in the manner disclosed above to determine the binding sites of the antibodies in the sera with the consensus peptide.

[3] = tested on: Antibody to CS2; experiment: ELISA of 8-mer peptides (pins) with rabbit serum; conditions: a listed pin number means recognized
Experimental: as §1, §2, §3, §4, §5, §6, §7, §8

[4] = tested on: Antibody to CS17; experiment: ELISA of 8-mer peptides (pins) with rabbit serum; conditions: a listed pin number means recognized
Experimental: as §1, §2, §3, §4, §5, §6, §7, §8

[5] = tested on: Antibody to CS4; experiment: ELISA of 8-mer peptides (pins) with rabbit serum; conditions: a listed pin number means recognized
Experimental: as §1, §2, §3, §4, §5, §6, §7, §8

[6] = tested on: Antibody to 0166 upper; experiment: ELISA of 8-mer peptides (pins) with rabbit serum
Experimental: as §1, §2, §3, §4, §5, §6, §7, §8

[7] = tested on: Antibody to 0166 lower; experiment: ELISA of 8-mer peptides (pins) with rabbit serum
Experimental: as §1, §2, §3, §4, §5, §6, §7, §8

[8] = rabbit 1081, a listed pin number means recognized
[9] = rabbit 1083, a listed pin number means recognized

Sequence | pins (8-aa peptide) recognized by serum ([1]; Antibody to CS1, rabbit 1090) | reactivity of 8-mer peptides with antibodies from the rabbits [2] | pins (8-aa peptide) recognized by serum ([1]; Antibody to CS1, rabbit 1089) | further results
SAVALTYS (listed as Escherichia coli) [compound 27] | 27 | most reactive | – | interaction of peptides with the antibodies raised to the consensus peptide [2]: more reliably interactive
VTASVDPT (listed as Escherichia coli) [compound 7] | 7 | – | – | pins (8-aa peptide) recognized by serum ([3]; Antibody to CS2, rabbit 1076): 7; pins (8-aa peptide) recognized by serum ([3]; Antibody to CS2, rabbit 1077): 7; pins (8-aa peptide) recognized by serum ([4]; Antibody to CS17, rabbit 1084): 7
QADGSALP (listed as Escherichia coli) [compound 19] | 19 | – | 19 | –
AVALTYSP (listed as Escherichia coli) [compound 28] | 28 | most reactive | 28 | interaction of peptides with the antibodies raised to the consensus peptide [2]: more reliably interactive
LQADGSAL (listed as Escherichia coli) [compound 18] | 18 | – | 18 | –
TASVDPTI (listed as Escherichia coli) [compound 8] | 8 | most reactive | – | pins (8-aa peptide) recognized by serum ([5]; Antibody to CS4, rabbit 938): 8; pins (8-aa peptide) recognized by serum ([3]; Antibody to CS2, rabbit 1076): 8; pins (8-aa peptide) recognized by serum ([3]; Antibody to CS2, rabbit 1077): 8; pins (8-aa peptide) recognized by serum ([4]; Antibody to CS17, rabbit 1084): 8
DLLQADGS (listed as Escherichia coli) [compound 16] | – | – | – | pins (8-aa peptide) recognized by serum [6, 8]: 16
PSAVALTY (listed as Escherichia coli) [compound 26] | 26 | most reactive | – | pins (8-aa peptide) recognized by serum ([5]; Antibody to CS4, rabbit 938): 26; interaction of peptides with the antibodies raised to the consensus peptide [2]: more reliably interactive
LLQADGSA (listed as Escherichia coli) [compound 17] | – | – | – | pins (8-aa peptide) recognized by serum [6, 8]: 17
VALTYSPA (listed as Escherichia coli) [compound 29] | 29 | most reactive | 29 | –
ALPSAVAL (listed as Escherichia coli) [compound 24] | 24 | most reactive | – | pins (8-aa peptide) recognized by serum ([5]; Antibody to CS4, rabbit 940): 24; pins (8-aa peptide) recognized by serum ([3]; Antibody to CS2, rabbit 1077): 24
TVTASVDP (listed as Escherichia coli) [compound 6] | 6 | – | – | pins (8-aa peptide) recognized by serum ([4]; Antibody to CS17, rabbit 1084): 6
SALPSAVA (listed as Escherichia coli) [compound 23] | 23 | most reactive | – | –
SVDPTIDL (listed as Escherichia coli) [compound 10] | 10 | most reactive | 10 | pins (8-aa peptide) recognized by serum ([5]; Antibody to CS4, rabbit 938): 10; pins (8-aa peptide) recognized by serum ([5]; Antibody to CS4, rabbit 940): 10; pins (8-aa peptide) recognized by serum [6, 8]: 10; pins (8-aa peptide) recognized by serum ([3]; Antibody to CS2, rabbit 1076): 10; pins (8-aa peptide) recognized by serum ([3]; Antibody to CS2, rabbit 1077): 10; interaction of peptides with the antibodies raised to the consensus peptide [2]: more reliably interactive
NITVTASV (listed as Escherichia coli) [compound 4] | 4 | most reactive | 4 | pins (8-aa peptide) recognized by serum ([4]; Antibody to CS17, rabbit 1080): 4
GSALPSAV (listed as Escherichia coli) [compound 22] | 22 | – | – | pins (8-aa peptide) recognized by serum ([5]; Antibody to CS4, rabbit 940): 22
DGSALPSA (listed as Escherichia coli) [compound 21] | 21 | – | 21 | –
DPTIDLLQ (listed as Escherichia coli) [compound 12] | 12 | most reactive | 12 | pins (8-aa peptide) recognized by serum ([5]; Antibody to CS4, rabbit 938): 12; pins (8-aa peptide) recognized by serum ([5]; Antibody to CS4, rabbit 940): 12; pins (8-aa peptide) recognized by serum ([6]; rabbit 934, a listed pin number means recognized): 12; pins (8-aa peptide) recognized by serum [6, 8]: 12; pins (8-aa peptide) recognized by serum ([3]; Antibody to CS2, rabbit 1076): 12; pins (8-aa peptide) recognized by serum ([7]; rabbit 1082, a listed pin number means recognized): 12; pins (8-aa peptide) recognized by serum [7, 9]: 12; interaction of peptides with the antibodies raised to the consensus peptide [2]: more reliably interactive
LPSAVALT (listed as Escherichia coli) [compound 25] | – | most reactive | – | pins (8-aa peptide) recognized by serum ([5]; Antibody to CS4, rabbit 940): 25
VEKNITVT (listed as Escherichia coli) [compound 1] | – | – | – | pins (8-aa peptide) recognized by serum ([5]; Antibody to CS4, rabbit 940): 1; pins (8-aa peptide) recognized by serum ([4]; Antibody to CS17, rabbit 1084): 1
EKNITVTA (listed as Escherichia coli) [compound 2] | – | most reactive | – | pins (8-aa peptide) recognized by serum ([5]; Antibody to CS4, rabbit 940): 2; pins (8-aa peptide) recognized by serum ([4]; Antibody to CS17, rabbit 1080): 2; pins (8-aa peptide) recognized by serum [7, 9]: 2
ITVTASVD (listed as Escherichia coli) [compound 5] | – | most reactive | – | –
ADGSALPS (listed as Escherichia coli) [compound 20] | 20 | – | 20 | –
IDLLQADG (listed as Escherichia coli) [compound 15] | – | – | – | pins (8-aa peptide) recognized by serum [6, 8]: 15
